#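 48-hour exposure; five concentrations; linearly interpolated endpoints. TGI: concentration producing complete growth inhibition.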
# Key:
# Test in all cases: inhibition of tumour cell growth, NCI panel, 48 h
# SR leukemia = test system: SR leukemia
# OVCAR-3 ovarian = test system: OVCAR-3 ovarian
# UACC-257 melanoma = test system: UACC-257 melanoma
# CAKI-1 renal = test system: CAKI-1 renal
# SN12C renal = test system: SN12C renal
# SNB-75 CNS = test system: SNB-75 CNS
# SNB-19 CNS = test system: SNB-19 CNS
# K-562 leukemia = test system: K-562 leukemia
# HCT-15 colon = test system: HCT-15 colon
# OVCAR-8 ovarian = test system: OVCAR-8 ovarian
# IGROV1 ovarian = test system: IGROV1 ovarian
# SF-539 CNS = test system: SF-539 CNS
# M14 melanoma = test system: M14 melanoma
# HT29 colon = test system: HT29 colon
# MDA-MB-435 = test system: MDA-MB-435
# OVCAR-4 ovarian = test system: OVCAR-4 ovarian
# T-47D breast = test system: T-47D breast
# MDA-MB-231 breast = test system: MDA-MB-231 breast
# UACC-62 melanoma = test system: UACC-62 melanoma
SMILES,TGI (SR leukemia) [µM],TGI (OVCAR-3 ovarian) [µM],TGI (UACC-257 melanoma) [µM],TGI (CAKI-1 renal) [µM],TGI (SN12C renal) [µM],TGI (SNB-75 CNS) [µM],TGI (SNB-19 CNS) [µM],TGI (K-562 leukemia) [µM],TGI (HCT-15 colon) [µM],TGI (OVCAR-8 ovarian) [µM],TGI (IGROV1 ovarian) [µM],TGI (SF-539 CNS) [µM],TGI (M14 melanoma) [µM],TGI (HT29 colon) [µM],TGI (MDA-MB-435) [µM],TGI (OVCAR-4 ovarian) [µM],TGI (T-47D breast) [µM],TGI (MDA-MB-231 breast) [µM],TGI (UACC-62 melanoma) [µM]
COc1cc(S(=O)(=O)Nc2ccc(-c3csc(N4C(=O)CSC4c4cccs4)n3)cc2)ccc1Cl (stereo unspecified),> 100,> 100,46,> 100,73.7,40.3,> 100,95.6,> 100,> 100,> 100,61.6,> 100,> 100,> 100,82.9,,,
c1ccc(Nc2nnc(CSc3nc(-c4ccccc4)c(-c4ccccc4)[nH]3)s2)cc1,51.1,26.7,50,,35,85.6,,,49.9,53.8,42.2,43.6,28.5,30.6,,87.7,,,
N#CC1(C#N)C2CCCCC23OC(=N)C1(C#N)C(c1ccco1)O3 (stereo unspecified),,33.5,34.9,24.5,29.2,> 100,> 100,> 100,22.5,73.6,40.3,51.6,41.6,> 100,52.8,,51.8,33,36.4
CCc1nnc(CC)n1NCCCC(=O)O,> 100,> 100,> 100,,> 100,> 100,> 100,> 100,> 100,> 100,> 100,> 100,> 100,> 100,> 100,> 100,,> 100,> 100
COc1ccc(C2c3cc4c(cc3C(O)C3CCC(=O)N23)OCO4)cc1 (stereo unspecified),> 100,> 100,> 100,> 100,> 100,> 100,> 100,> 100,> 100,> 100,> 100,> 100,> 100,> 100,> 100,> 100,> 100,,> 100
CC1=C/C(=N\OCC(=O)O)CC(c2ccc(C(C)C)cc2)C1 (stereo unspecified),> 100,,> 100,> 100,> 100,,,> 100,71.9,> 100,> 100,> 100,> 100,37.6,> 100,,> 100,> 100,> 100
COc1cc(/C=C/C(=O)c2sc(-n3nc(-c4ccccc4)cc3-c3ccccc3)nc2C)ccc1O,,> 100,> 100,> 100,> 100,> 100,,> 100,> 100,> 100,> 100,> 100,,,,,,,> 100

# From PubChem BioAssay (NCI)
